Measurements taken from ChEMBL document CHEMBL1151077, “Peptide mimics of glycylproline as inhibitors of prolidase” (Bioorg Med Chem Lett, 1995).
Peptide text beside a SMILES is read from it. * marks the point of attachment. Bz = O=C(c1ccccc1)*

Target: Angiotensin-converting enzyme (Homo sapiens, UniProt P12821+Q9BYF1)
Experiment: Inhibitory activity against angiotensin converting enzyme
Format: protein assay

IC50: 9.4 µM
Compound: O=C(N[C@@H](Cc1ccccc1)C(=O)NCC(=O)N1CCC[C@H]1C(=O)O)c1ccccc1 (Bz-Phe-Gly-Pro-OH)
